Literature values, collected in patent publication US20030181475A1, “Method of administering buprenorphine to treat depression” (EURO-CELTIQUE S.A., priority 2002, published 2003).

Tested on: depressed patients
Conditions: literature clinical reports
For `COc1ccc2c3c1O[C@H]1[C@@H](O)C=C[C@H]4[C@@H](C2)N(C)CC[C@@]341` [codeine], the “anti-depressive / therapeutic effect in depressed patients” value (“anti-depressive / therapeutic effect” for short) is given as “no anti-depressive effect”. In the case of `COc1cccc(C2(O)CCCCC2CN(C)C)c1` (centres unmarked) [tramadol], the “anti-depressive / therapeutic effect” value is listed as “helped a patient with refractory major depression”. In the case of `CN1CC[C@]23c4c5ccc(O)c4O[C@H]2[C@@H](O)C=C[C@H]3[C@H]1C5` [morphine], the “anti-depressive / therapeutic effect” value is given as “conflicting”. In the case of “β-endorphin (YGGFMTSEKSQTPLVTLFKNAIIKNAYKKGE; Beta-endorphin; UniProt P01189 237-267, looked up) [an endogenous opioid]”, the “anti-depressive / therapeutic effect” value is listed as “no or little observable therapeutic effect”. For `CCC(=O)C(CC(C)N(C)C)(c1ccccc1)c1ccccc1` (centres unmarked) [methadone], the “anti-depressive / therapeutic effect” value is listed as “conflicting”.
